The source of these data is PubChem BioAssay (NCI).

Assay in all cases: growth of human tumour cells (NCI), 48 h
Assay [1] deals with HCT-15 colon.
Assay [2] concerns IGROV1 ovarian.
Assay [3] relates to SK-MEL-5 melanoma.
For assay [4], the system named is LOX IMVI melanoma.
The test system of assay [5] is HCC-2998 colon.
For assay [6], the system named is M14 melanoma.
Assay [7] relates to OVCAR-4 ovarian.
The test system of assay [8] is SK-MEL-2 melanoma.
The test system of assay [9] is SNB-75 CNS.
Assay [10] has as its system SF-539 CNS.

Each structure is given as a SMILES string.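 A five-concentration, 48-hour dose response in 96-well plates underlies each endpoint, interpolated linearly between surrounding concentrations. GI50 marks 50% less growth. TGI is the concentration that stops growth completely.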 A value given as a limit tells only on which side of the number the result lay.

With `CCOc1ccccc1NC(=O)C(=O)CC(=O)C1=C(C)Nc2ccccc2S1`, the TGI in assay [1], in [2], in assay [3], in assay [4], in [5] and in [6] was > 100 µM in each case. The TGI in assay [7], in assay [8], in assay [9] and in [10] was > 100 µM each time.
With `O=C1C2=C(C(=O)c3c(O)ccc(O)c31)N(c1ccc(N3CCOCC3)nc1)Cc1ccccc1O2`, the GI50 in assay [1] was 0.205 µM; in assay [2], 0.277 µM; in assay [3], 1.36 µM; in assay [4], 0.188 µM; in [5], 1.56 µM; in [6], 0.276 µM. Also, the GI50 is 0.282 µM in assay [7], 1.39 µM in assay [8], 1.24 µM in [9] and 0.276 µM in assay [10]. The TGI was 0.622 µM in assay [1]; 1.14 µM in assay [2]; 2.76 µM in [3]; 0.517 µM in [4]; 2.99 µM in assay [5]; 0.894 µM in assay [6]. Moreover, the TGI is 1.05 µM in [7], 3.75 µM in [8], 7.27 µM in assay [9] and 0.944 µM in [10].
`CCCCCCN(CCCCCC)CCCNc1nccc2ccccc12`: the GI50 in assay [1] is 1.41 µM; in assay [2], 1.89 µM; in assay [3], 1.7 µM; in assay [4] it was 1.43 µM; in assay [5], 1.98 µM; in assay [6], 1.42 µM. The GI50 in [7] was 2.09 µM; in [8], 1.8 µM; in assay [9], 1.65 µM; in assay [10], 1.94 µM. Besides, the TGI was 3.21 µM in assay [1]; 4.75 µM in assay [2]; 3.13 µM in assay [3]; 2.94 µM in assay [4]; 3.75 µM in assay [5]; 2.89 µM in [6]. The TGI in assay [7] was 7.72 µM; in assay [8] it was 3.41 µM; in assay [9], 4.22 µM; in assay [10], 3.59 µM.
In the case of `CCCc1cc(=O)oc2c(C(=O)CC(C)C)c(O)c(CC=C(C)C)c(O)c12`, the GI50 in assay [1] is 5.81 µM; in assay [2], 15.4 µM; in [3], 2.53 µM; in assay [4], 12.9 µM; in [5], 4.87 µM; in [6], 10.3 µM. Further, the GI50 is 10.7 µM in assay [7], 9.71 µM in assay [8], 10.7 µM in assay [9] and 9.8 µM in assay [10]. In addition, the TGI in [1] was > 50 µM; in [2], > 50 µM; in assay [3], 11 µM; in [4], > 50 µM; in assay [5], > 50 µM; in assay [6] it was > 50 µM. For the same compound, the TGI was > 50 µM in [7], 49 µM in assay [8], 41.8 µM in assay [9] and 44.2 µM in assay [10].
`CCOP(=O)(CCP(=O)(OCC)OCC)OCC.C[CH2][Sn]([Cl])([Cl])[CH2]C`: the GI50 is 51.2 µM in assay [1]; > 100 µM in assay [2]; 36.4 µM in assay [3]; 22 µM in assay [4]; > 69.4 µM in assay [5]; 41.4 µM in [6]. The GI50 was > 48.7 µM in assay [7], 18.9 µM in [8], 26.4 µM in [9] and 34.9 µM in [10]. Besides, the TGI in [1] is > 78.7 µM; in [2], > 100 µM; in [3], > 86.7 µM; in assay [4], 47.9 µM; in assay [5], > 100 µM; in assay [6] it was > 57.8 µM. The TGI in [7] is > 71.9 µM; in assay [8], 43.1 µM; in assay [9], 69.3 µM; in assay [10] it was 52.1 µM.
As for `Cc1cc(C)nc(NS(=O)(=O)c2ccc(Nc3c4ccccc4nc4c(C(=O)NCCN(C)C)ccc(Cl)c34)cc2)n1`, the TGI in [1] was 10.1 µM; in assay [2], 11.7 µM; in [3], 15.2 µM; in [4], 2.25 µM; in assay [5] it was 26.7 µM; in assay [6] it was 10.6 µM. Moreover, the TGI in [7] is 4.8 µM; in assay [8], 12.1 µM; in assay [9], 11 µM; in assay [10], 11.5 µM.
As to `C/C=C/C=N/N(c1nnc(-c2ccccc2)c(-c2ccccc2)n1)S(=O)(=O)c1ccc(C)cc1`, the TGI in [1] was found to be 18.6 µM; in assay [2] it was 29.3 µM; in assay [3], 23.1 µM; in [4] it was 13.8 µM; in assay [5], 31.3 µM; in [6], 15.8 µM. Also, the TGI is 28.2 µM in assay [7], 24.1 µM in assay [8], 19.9 µM in assay [9] and 23.8 µM in assay [10].
Take `CC(=O)NNc1nc(C)c(C(=O)NNC(=O)C(=O)Nc2ccc(C)c(C)c2)s1`: the TGI in [1], in assay [2], in [3], in assay [4], in assay [5] and in [6] was > 100 µM throughout. Further, the TGI in [7], in assay [8], in assay [9] and in assay [10] was > 100 µM throughout.
`O=c1[nH]c(=S)[nH]c2c1sc(=S)n2-c1ccccc1`: the TGI in assay [1], in [2], in assay [3], in [4], in assay [5] and in assay [6] was > 100 µM in each case. For the same compound, the TGI in [7], in [8], in [9] and in [10] was > 100 µM each time.
